Assay results published in ChEMBL document CHEMBL1139861, “Novel series of potent, nonsteroidal, selective androgen receptor modulators based on 7H-[1,4]oxazino[3,2-g]quinolin-7-ones” (J Med Chem, 2007).

What was measured:
Androgen receptor [1] = target: T1, Androgen receptor (Homo sapiens, UniProt P10275)
T1 sequence (P10275 whole entry): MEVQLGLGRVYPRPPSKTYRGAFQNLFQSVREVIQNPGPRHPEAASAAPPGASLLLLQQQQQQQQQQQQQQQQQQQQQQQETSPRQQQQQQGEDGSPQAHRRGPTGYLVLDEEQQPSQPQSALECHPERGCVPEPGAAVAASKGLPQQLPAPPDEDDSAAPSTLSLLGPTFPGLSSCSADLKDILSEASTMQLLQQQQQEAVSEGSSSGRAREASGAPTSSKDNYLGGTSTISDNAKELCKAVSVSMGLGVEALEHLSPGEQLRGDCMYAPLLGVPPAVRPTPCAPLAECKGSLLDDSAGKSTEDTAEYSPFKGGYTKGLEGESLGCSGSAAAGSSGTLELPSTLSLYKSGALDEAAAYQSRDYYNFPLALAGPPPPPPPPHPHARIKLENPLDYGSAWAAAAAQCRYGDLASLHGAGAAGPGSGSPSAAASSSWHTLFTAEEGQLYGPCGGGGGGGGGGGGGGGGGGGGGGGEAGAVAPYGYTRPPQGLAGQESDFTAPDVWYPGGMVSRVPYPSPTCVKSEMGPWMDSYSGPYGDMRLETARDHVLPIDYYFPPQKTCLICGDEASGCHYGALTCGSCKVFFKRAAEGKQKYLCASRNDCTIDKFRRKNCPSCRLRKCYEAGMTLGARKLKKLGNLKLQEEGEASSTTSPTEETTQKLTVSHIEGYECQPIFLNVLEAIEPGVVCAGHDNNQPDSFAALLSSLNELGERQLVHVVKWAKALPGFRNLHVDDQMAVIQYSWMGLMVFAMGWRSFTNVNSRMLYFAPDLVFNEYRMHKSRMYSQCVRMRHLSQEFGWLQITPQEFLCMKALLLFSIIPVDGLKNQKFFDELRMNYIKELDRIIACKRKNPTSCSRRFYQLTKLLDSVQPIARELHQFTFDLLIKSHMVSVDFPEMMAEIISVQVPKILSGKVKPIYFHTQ
Description: Agonist activity at human androgen receptor expressed in CV1 cells by transcriptional activation assay

Androgen receptor [2] = target: T1, Androgen receptor; experiment: biochemical
Description: Displacement of [3H]DHT from human AR expressed in MDA-MB-453 cells

Androgen receptor [3] = target: T1, Androgen receptor; remark: listed apart in the source
Description: Antagonist activity at human androgen receptor expressed in CV1 cells by transcriptional activation assay

Progesterone receptor = target: T2, Progesterone receptor (Homo sapiens, UniProt P06401)
T2 sequence (P06401 whole entry): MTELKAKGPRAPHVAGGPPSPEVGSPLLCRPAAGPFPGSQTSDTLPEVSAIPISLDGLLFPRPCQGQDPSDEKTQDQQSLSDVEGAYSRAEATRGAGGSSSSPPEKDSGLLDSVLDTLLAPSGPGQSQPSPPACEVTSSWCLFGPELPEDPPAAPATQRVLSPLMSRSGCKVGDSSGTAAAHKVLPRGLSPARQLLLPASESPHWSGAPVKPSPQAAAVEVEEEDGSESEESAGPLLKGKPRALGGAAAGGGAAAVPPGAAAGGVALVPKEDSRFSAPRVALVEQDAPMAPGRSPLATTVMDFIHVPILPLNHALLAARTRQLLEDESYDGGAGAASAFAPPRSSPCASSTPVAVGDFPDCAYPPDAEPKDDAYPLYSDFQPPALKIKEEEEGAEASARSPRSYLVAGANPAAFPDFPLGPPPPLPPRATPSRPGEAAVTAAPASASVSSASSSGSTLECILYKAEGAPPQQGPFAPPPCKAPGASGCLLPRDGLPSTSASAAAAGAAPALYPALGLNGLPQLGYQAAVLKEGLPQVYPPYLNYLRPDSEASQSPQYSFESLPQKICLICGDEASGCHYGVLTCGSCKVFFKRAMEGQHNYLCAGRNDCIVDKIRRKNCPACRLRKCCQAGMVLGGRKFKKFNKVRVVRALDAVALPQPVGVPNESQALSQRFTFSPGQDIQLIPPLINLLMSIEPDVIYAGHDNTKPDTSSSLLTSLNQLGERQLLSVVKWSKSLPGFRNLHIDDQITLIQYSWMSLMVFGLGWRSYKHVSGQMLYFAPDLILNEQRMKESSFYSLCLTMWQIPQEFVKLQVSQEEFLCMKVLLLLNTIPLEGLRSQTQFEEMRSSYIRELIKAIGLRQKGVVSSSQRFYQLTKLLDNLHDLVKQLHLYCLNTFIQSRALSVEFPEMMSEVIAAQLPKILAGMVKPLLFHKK
Description: Displacement of [3H]progesterone from human PRA

Glucocorticoid receptor = target: T3, Glucocorticoid receptor (Homo sapiens, UniProt P04150); experiment: Displacement of radiolabeled Dexamethasone from human GR
T3 sequence (P04150 whole entry): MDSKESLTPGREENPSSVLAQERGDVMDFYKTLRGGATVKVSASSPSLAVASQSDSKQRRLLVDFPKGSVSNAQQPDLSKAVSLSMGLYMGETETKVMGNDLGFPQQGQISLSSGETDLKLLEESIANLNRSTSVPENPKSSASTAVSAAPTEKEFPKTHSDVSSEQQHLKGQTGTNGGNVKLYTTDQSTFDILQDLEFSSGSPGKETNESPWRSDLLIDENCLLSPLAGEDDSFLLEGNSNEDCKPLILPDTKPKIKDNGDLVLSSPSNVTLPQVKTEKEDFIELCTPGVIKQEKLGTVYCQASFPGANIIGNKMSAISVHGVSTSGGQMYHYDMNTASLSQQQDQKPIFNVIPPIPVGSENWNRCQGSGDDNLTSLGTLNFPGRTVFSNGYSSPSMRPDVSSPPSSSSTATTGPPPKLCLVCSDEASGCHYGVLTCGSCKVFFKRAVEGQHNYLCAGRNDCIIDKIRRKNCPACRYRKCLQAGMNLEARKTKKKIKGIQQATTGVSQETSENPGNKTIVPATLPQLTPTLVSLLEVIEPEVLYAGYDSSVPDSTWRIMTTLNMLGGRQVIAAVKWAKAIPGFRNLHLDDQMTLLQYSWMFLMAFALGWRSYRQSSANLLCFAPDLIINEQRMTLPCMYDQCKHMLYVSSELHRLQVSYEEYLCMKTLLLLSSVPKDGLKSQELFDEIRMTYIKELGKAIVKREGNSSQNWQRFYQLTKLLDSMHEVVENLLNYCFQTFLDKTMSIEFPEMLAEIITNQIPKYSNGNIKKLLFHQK

Rattus norvegicus [4] = species on record: Rattus norvegicus; settings: dose 100 mg/kg; route oral
Rattus norvegicus [5] = species on record: Rattus norvegicus; settings: dose 100 mg/kg; route oral; remark: listed apart in the source
[6] = target: T4, Mineralocorticoid receptor (Homo sapiens, UniProt P08235)
T4 sequence (P08235 whole entry): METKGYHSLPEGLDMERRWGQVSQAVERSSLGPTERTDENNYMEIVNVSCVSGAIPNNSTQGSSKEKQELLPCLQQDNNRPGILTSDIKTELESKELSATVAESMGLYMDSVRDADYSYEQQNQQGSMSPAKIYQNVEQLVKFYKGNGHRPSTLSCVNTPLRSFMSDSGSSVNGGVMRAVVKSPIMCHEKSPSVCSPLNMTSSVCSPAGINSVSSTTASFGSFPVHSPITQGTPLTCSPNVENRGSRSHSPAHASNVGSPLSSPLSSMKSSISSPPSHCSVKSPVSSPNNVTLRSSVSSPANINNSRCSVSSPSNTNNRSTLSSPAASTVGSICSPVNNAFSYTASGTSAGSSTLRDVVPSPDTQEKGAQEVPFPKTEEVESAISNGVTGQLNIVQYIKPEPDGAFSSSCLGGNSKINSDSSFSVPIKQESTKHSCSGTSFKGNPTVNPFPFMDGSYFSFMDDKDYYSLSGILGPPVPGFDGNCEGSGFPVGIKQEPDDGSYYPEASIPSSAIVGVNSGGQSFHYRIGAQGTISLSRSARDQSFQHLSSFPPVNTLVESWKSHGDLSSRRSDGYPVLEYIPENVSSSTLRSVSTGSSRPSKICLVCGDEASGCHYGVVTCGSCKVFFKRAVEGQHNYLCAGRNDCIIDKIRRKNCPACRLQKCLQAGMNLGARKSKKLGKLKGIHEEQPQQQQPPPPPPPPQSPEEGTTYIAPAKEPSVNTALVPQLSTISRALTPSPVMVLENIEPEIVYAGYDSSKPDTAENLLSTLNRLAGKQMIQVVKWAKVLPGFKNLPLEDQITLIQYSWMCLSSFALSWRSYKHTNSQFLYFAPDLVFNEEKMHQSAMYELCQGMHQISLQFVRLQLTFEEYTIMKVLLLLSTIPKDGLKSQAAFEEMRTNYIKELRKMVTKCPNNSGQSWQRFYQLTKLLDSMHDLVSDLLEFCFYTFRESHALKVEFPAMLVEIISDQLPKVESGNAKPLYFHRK
Description: Displacement of radiolabeled aldosterone from human MR

`CC1COc2cc3[nH]c(=O)cc(C(F)(F)F)c3cc2N1CC1CC1` (racemic) showed an EC50 (Androgen receptor [1]) of 0.0019 µM and a Ki (Androgen receptor [2]) of 0.004 µM.

In the case of `CC(C)(C)N1CCOc2cc3[nH]c(=O)cc(C(F)(F)F)c3cc21`, the IC50 (Androgen receptor [3]) is reported as greater than 10 µM, the EC50 (Androgen receptor [1]) is reported as 0.0078 µM and the Ki (Androgen receptor [2]) is reported as 0.048 µM.

In the case of `O=c1cc(C(F)(F)F)c2cc3c(cc2[nH]1)OCC1CCCCN31` (racemic), the Ki (Progesterone receptor) is reported as greater than 10 µM, the EC50 (Androgen receptor [1]) is reported as 0.014 µM and the Ki (Androgen receptor [2]) is reported as 0.016 µM. The Ki (Glucocorticoid receptor) was greater than 10 µM.

`CCCN1CCOc2cc3[nH]c(=O)cc(C(F)(F)F)c3cc21` was tested, and the IC50 (Androgen receptor [3]) was greater than 10 µM.

Work on `CCC1COc2cc3[nH]c(=O)cc(C(F)(F)F)c3cc2N1CC1CC1` (racemic) yielded a Ki (Progesterone receptor) of 5.4 µM, an EC50 (Androgen receptor [1]) of 0.0023 µM and a Ki (Androgen receptor [2]) of 0.023 µM. It also gave a Ki (Glucocorticoid receptor) greater than 10 µM.

For `CCC1CN(CC(F)(F)F)c2cc3c(C(F)(F)F)cc(=O)[nH]c3cc2O1` (racemic), the IC50 (Androgen receptor [3]) was greater than 10 µM, the EC50 (Androgen receptor [1]) was 0.015 µM and the Ki (Androgen receptor [2]) was 0.03 µM.

`O=c1cc(C(F)(F)F)c2cc3c(cc2[nH]1)OC[C@H]1CCCN31` gave an EC50 (Androgen receptor [1]) of 0.026 µM and a Ki (Androgen receptor [2]) of 0.027 µM.

`C[C@]1(O)CC[C@H]2[C@@H]3CCC4=CC(=O)CC[C@]4(C)[C@@]3(F)[C@@H](O)C[C@@]21C` [FLUOXYMESTERONE] was tested, and the Efficacy (Rattus norvegicus [4]) was 79% and the Efficacy (Rattus norvegicus [5]) was 129%.

Compound `CC(C)[C@@H]1COc2cc3[nH]c(=O)cc(C(F)(F)F)c3cc2N1CC(F)(F)F` has an EC50 (Androgen receptor [1]) of 0.0059 µM and a Ki (Androgen receptor [2]) of 0.051 µM.

`CC1CN(C)c2cc3c(C(F)(F)F)cc(=O)[nH]c3cc2O1` (racemic) was tested, and the EC50 (Androgen receptor [1]) was 0.047 µM and the Ki (Androgen receptor [2]) was 0.033 µM.

With `CCN1c2cc3c(C(F)(F)F)cc(=O)[nH]c3cc2OCC1C` (racemic) the EC50 (Androgen receptor [1]) was 0.01 µM and the Ki (Androgen receptor [2]) was 0.0042 µM.

For `O=c1cc(C(F)(F)F)c2cc3c(cc2[nH]1)OCCN3Cc1ccccc1`, the IC50 (Androgen receptor [3]) was 0.224 µM, the EC50 (Androgen receptor [1]) was greater than 10 µM and the Ki (Androgen receptor [2]) was 0.206 µM.

In the case of `O=c1cc(C(F)(F)F)c2cc3c(cc2[nH]1)OCCN3CC(F)(F)F`, the Ki (Progesterone receptor) is reported as 5.3 µM, the IC50 (Androgen receptor [3]) is reported as greater than 10 µM and the Ki [6] is reported as greater than 10 µM. The Ki (Glucocorticoid receptor) was 9.2 µM.

`CC1CN(CC(F)(F)F)c2cc3c(C(F)(F)F)cc(=O)[nH]c3cc2O1` (stereo in doubt; (-)-10h) gave an IC50 (Androgen receptor [3]) greater than 10 µM.

`CCC1CN(C)c2cc3c(C(F)(F)F)cc(=O)[nH]c3cc2O1` (racemic) showed an IC50 (Androgen receptor [3]) of 0.067 µM, an EC50 (Androgen receptor [1]) of 0.052 µM and a Ki (Androgen receptor [2]) of 0.058 µM.

`CN1CCOc2cc3[nH]c(=O)cc(C(F)(F)F)c3cc21` gave an IC50 (Androgen receptor [3]) greater than 10 µM.

For `CC1CN(CC(F)(F)F)c2cc3c(C(F)(F)F)cc(=O)[nH]c3cc2O1` (racemic), the Ki (Progesterone receptor) was 7 µM, the Ki [6] was greater than 10 µM and the Ki (Glucocorticoid receptor) was greater than 10 µM.

For `CCC1CN(CC)c2cc3c(C(F)(F)F)cc(=O)[nH]c3cc2O1` (racemic), the IC50 (Androgen receptor [3]) was greater than 10 µM, the EC50 (Androgen receptor [1]) was 0.031 µM and the Ki (Androgen receptor [2]) was 0.034 µM.

`CCN1CCOc2cc3[nH]c(=O)cc(C(F)(F)F)c3cc21` was tested, and the Ki (Progesterone receptor) was 5.2 µM, the IC50 (Androgen receptor [3]) was greater than 10 µM and the Ki [6] was greater than 10 µM. It also gave a Ki (Glucocorticoid receptor) of 8.1 µM.

`CCC1COc2cc3[nH]c(=O)cc(C(F)(F)F)c3cc2N1CC` (racemic) was tested, and the EC50 (Androgen receptor [1]) was 0.0039 µM and the Ki (Androgen receptor [2]) was 0.0056 µM.

For `CC(C)CN1CCOc2cc3[nH]c(=O)cc(C(F)(F)F)c3cc21`, the EC50 (Androgen receptor [1]) was 0.0032 µM and the Ki (Androgen receptor [2]) was 0.017 µM.

With `CC(C)C[C@@H]1COc2cc3[nH]c(=O)cc(C(F)(F)F)c3cc2N1CC(F)(F)F` the EC50 (Androgen receptor [1]) was 0.027 µM and the Ki (Androgen receptor [2]) was 0.109 µM.

`CC1COc2cc3[nH]c(=O)cc(C(F)(F)F)c3cc2N1` (racemic) showed an EC50 (Androgen receptor [1]) of 0.133 µM and a Ki (Androgen receptor [2]) of 0.113 µM.

In the case of `O=c1cc(C(F)(F)F)c2cc3c(cc2[nH]1)OCCN3CC1CC1`, the Ki (Progesterone receptor) is reported as 2 µM, the Ki [6] is reported as greater than 10 µM and the Ki (Glucocorticoid receptor) is reported as 8.8 µM.

In the case of `O=c1cc(C(F)(F)F)c2cc3c(cc2[nH]1)OCCN3`, the IC50 (Androgen receptor [3]) is reported as 0.296 µM, the EC50 (Androgen receptor [1]) is reported as greater than 10 µM and the Ki (Androgen receptor [2]) is reported as greater than 1 µM.
